Measurements published in BindingDB's records for patent US11787780 (Corcept Therapeutics, 2023).

Biological target: T1, Glucocorticoid receptor (Homo sapiens, UniProt P04150)
T1 sequence (P04150 whole entry): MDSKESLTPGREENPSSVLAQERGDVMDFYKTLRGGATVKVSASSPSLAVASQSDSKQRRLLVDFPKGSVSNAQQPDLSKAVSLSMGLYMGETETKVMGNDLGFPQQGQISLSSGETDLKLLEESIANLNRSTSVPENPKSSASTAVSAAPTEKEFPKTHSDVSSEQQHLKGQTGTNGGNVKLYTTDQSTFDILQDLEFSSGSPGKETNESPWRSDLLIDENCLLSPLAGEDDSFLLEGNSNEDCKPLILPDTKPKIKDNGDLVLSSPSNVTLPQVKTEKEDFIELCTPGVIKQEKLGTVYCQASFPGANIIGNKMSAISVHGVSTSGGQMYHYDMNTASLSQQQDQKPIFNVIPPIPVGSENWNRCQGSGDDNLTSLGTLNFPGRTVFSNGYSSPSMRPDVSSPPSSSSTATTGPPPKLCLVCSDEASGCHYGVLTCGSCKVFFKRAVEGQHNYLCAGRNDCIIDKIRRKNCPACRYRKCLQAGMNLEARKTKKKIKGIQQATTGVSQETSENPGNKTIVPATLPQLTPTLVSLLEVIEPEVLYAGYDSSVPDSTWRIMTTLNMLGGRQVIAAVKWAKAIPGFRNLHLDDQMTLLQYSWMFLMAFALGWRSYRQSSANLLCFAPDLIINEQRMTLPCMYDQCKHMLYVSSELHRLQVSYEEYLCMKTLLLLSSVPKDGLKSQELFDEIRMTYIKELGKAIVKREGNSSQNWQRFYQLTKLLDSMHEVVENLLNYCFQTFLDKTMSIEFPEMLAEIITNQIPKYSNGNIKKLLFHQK
Assay: GR Binding Assay
Experimental: Binding of test compounds to the glucocorticoid receptor (GR) is determined using a fluorescence polarisation (FP) assay utilising a recombinant ligand binding domain (LBD) of GR. The test compounds are assessed by their ability to displace a fluorescently tagged ligand and detection of the resulting decrease in fluorescence polarisation.

Row | SMILES | IC50 [nM]
1 | CCCn1cc(S(=O)(=O)N2CCC(Cc3ccccn3)(c3cc4cnn(-c5ccc(F)cc5)c4cc3C)C2)cn1 (stereo not drawn) [US11787780, Example 152] | 13
2 | Cc1cc2c(cnn2-c2ccc(=O)n(C)c2)cc1C1(Cc2ccccc2)CCN(S(=O)(=O)c2cnn(C(C)C)n2)C1 (stereo not drawn) [US11787780, Example 320] | 12
3 | Cc1cc2c(cnn2-c2ccc(F)cc2)cc1C1(Cc2ccccc2)CC(O)N(Cc2ccccc2)C1=O (stereo not drawn) [US11787780, Example 336] | 180
